Assay results as given in ChEMBL document CHEMBL1681749, “Antibacterial activities of imidazolium, pyrrolidinium and piperidinium salts” (2011).

What was measured:
Format in all cases: functional
[1] = system: Staphylococcus aureus; assay: Antibacterial activity against Staphylococcus aureus subsp. aureus NBRC 15035 by agar-dilution method
[2] = system: Escherichia coli; assay: Antibacterial activity against Escherichia coli MG1655 by agar-dilution method; details: K-12 substr. MG1655
[3] = system: Bacillus subtilis; assay: Antibacterial activity against Bacillus subtilis 168 by agar-dilution method; details: subsp. subtilis str. 168
[4] = system: Pseudomonas putida; assay: Antibacterial activity against Pseudomonas putida NBRC 14164 by agar-dilution method

`CCCCCC#CC[n+]1ccn(CCCCCCCCC)c1C.[I-]` showed an MIC [1] of 0.78 µg/mL, an MIC [2] of 12.5 µg/mL and an MIC [3] of 0.78 µg/mL. The MIC [4] was 50 µg/mL.
For `CCCCCC#CC[n+]1ccn(CCCCCCCCCC)c1C.[I-]`, the MIC [1] was 0.39 µg/mL, the MIC [2] was 3.13 µg/mL and the MIC [3] was 0.78 µg/mL. It also gave an MIC [4] of 50 µg/mL.
For `CCCCCC#CC[n+]1ccn(CCCCCCCCCCC)c1C.[I-]`, the MIC [1] was 0.39 µg/mL, the MIC [2] was 3.13 µg/mL and the MIC [3] was 0.39 µg/mL. The MIC [4] was 50 µg/mL.
With `CCCCCC#CC[n+]1ccn(CCCCCCCCCCCC)c1.[I-]` the MIC [1] was 0.39 µg/mL, the MIC [2] was 25 µg/mL and the MIC [3] was 0.39 µg/mL. For the same compound, the MIC [4] was 50 µg/mL.
`CCCCCC#CC[n+]1ccn(CCCCCCCCCCCC)c1C.[I-]` showed an MIC [1] of 0.39 µg/mL, an MIC [2] of 6.25 µg/mL and an MIC [3] of 0.39 µg/mL. The MIC [4] was 50 µg/mL.
Compound `CCCCCC#CC[n+]1ccn(CCCCCCCCCCCCCC)c1C.[I-]` has an MIC [1] of 0.78 µg/mL, an MIC [2] of 100 µg/mL and an MIC [3] of 0.78 µg/mL. The MIC [4] was > 100 µg/mL.
`CCCCCC#CC[n+]1ccn(CCCCCCCCCCCCCCCC)c1C.[I-]` was tested, and the MIC [1] was 1.56 µg/mL, the MIC [2] was > 100 µg/mL and the MIC [3] was 1.56 µg/mL. The MIC [4] was > 100 µg/mL.
With `CCCCCC#CC[n+]1ccn(CCCC[Si](C)(C)C)c1.[I-]` the MIC [1] was 3.13 µg/mL, the MIC [2] was 50 µg/mL and the MIC [3] was 1.56 µg/mL. The MIC [4] was 100 µg/mL.
`CCCCCC#CC[n+]1ccn(CCCC[Si](C)(C)C)c1C.[I-]` gave an MIC [1] of 1.56 µg/mL, an MIC [2] of 50 µg/mL and an MIC [3] of 1.56 µg/mL. For the same compound, the MIC [4] was 100 µg/mL.
`CCCCCC#CC[n+]1ccn(CCCCC[Si](C)(C)C)c1.[I-]` was tested, and the MIC [1] was 0.78 µg/mL, the MIC [2] was 25 µg/mL and the MIC [3] was 0.39 µg/mL. It also gave an MIC [4] of 100 µg/mL.
In the case of `CCCCCC#CC[n+]1ccn(CCCCC[Si](C)(C)C)c1C.[I-]`, the MIC [1] is reported as 0.39 µg/mL, the MIC [2] is reported as 12.5 µg/mL and the MIC [3] is reported as 0.39 µg/mL. It also gave an MIC [4] of 50 µg/mL.
`CCCCCC#CC[n+]1ccn(CCCCCC[Si](C)(C)C)c1C.[I-]` gave an MIC [1] of 0.39 µg/mL, an MIC [2] of 12.5 µg/mL and an MIC [3] of 0.39 µg/mL. It also gave an MIC [4] of 50 µg/mL.
Work on `CCCCCC#CC[n+]1ccn(CCCCCCC[Si](C)(C)C)c1.[I-]` yielded an MIC [1] of 0.78 µg/mL, an MIC [2] of 25 µg/mL and an MIC [3] of 0.39 µg/mL. For the same compound, the MIC [4] was 100 µg/mL.
`CCCCCC#CC[n+]1ccn(CCCCCCC[Si](C)(C)C)c1C.[I-]` was tested, and the MIC [1] was 0.39 µg/mL, the MIC [2] was 12.5 µg/mL and the MIC [3] was 0.39 µg/mL. The MIC [4] was 100 µg/mL.
Work on `CCCCCC#CC[n+]1ccn(CCCCCCCCC[Si](C)(C)C)c1.[I-]` yielded an MIC [1] of 0.78 µg/mL, an MIC [2] of 100 µg/mL and an MIC [3] of 0.39 µg/mL. The MIC [4] was > 100 µg/mL.
Compound `CCCCCC#CC[n+]1ccn(CCCCCCCCC[Si](C)(C)C)c1C.[I-]` has an MIC [1] of 0.78 µg/mL, an MIC [2] of 100 µg/mL and an MIC [3] of 0.39 µg/mL. For the same compound, the MIC [4] was 100 µg/mL.
In the case of `CCCCCC#CC[n+]1ccn(CCCCCCCCCCC[Si](C)(C)C)c1C.[I-]`, the MIC [1] is reported as 1.56 µg/mL, the MIC [2] is reported as > 100 µg/mL and the MIC [3] is reported as 1.56 µg/mL. For the same compound, the MIC [4] was > 100 µg/mL.
With `CCCCCC#CC[N+]1(C)CCCC1.[I-]` the MIC [1] was > 50 µg/mL, the MIC [2] was > 50 µg/mL and the MIC [3] was > 50 µg/mL. For the same compound, the MIC [4] was > 50 µg/mL.
With `CCCCCC#CC[N+]1(CCCCC[Si](C)(C)C)CCCC1.[I-]` the MIC [1] was 1.56 µg/mL, the MIC [2] was > 50 µg/mL and the MIC [3] was 1.56 µg/mL. For the same compound, the MIC [4] was > 50 µg/mL.
`CCCCCC#CC[N+]1(C)CCCCC1.[I-]` was tested, and the MIC [1] was > 50 µg/mL, the MIC [2] was > 50 µg/mL and the MIC [3] was > 50 µg/mL. For the same compound, the MIC [4] was > 50 µg/mL.
In the case of `CCCCCC#CC[N+]1(CCCCC[Si](C)(C)C)CCCCC1.[I-]`, the MIC [1] is reported as 1.56 µg/mL, the MIC [2] is reported as 50 µg/mL and the MIC [3] is reported as 1.56 µg/mL. It also gave an MIC [4] of 100 µg/mL.
In the case of `C#CC[n+]1ccn(CCCC[Si](C)(C)C)c1.[I-]`, the MIC [1] is reported as 100 µg/mL, the MIC [2] is reported as > 100 µg/mL and the MIC [3] is reported as > 100 µg/mL. For the same compound, the MIC [4] was > 100 µg/mL.
For `CCCCCCCC[n+]1ccn(CCCC[Si](C)(C)C)c1.[I-]`, the MIC [1] was 3.13 µg/mL, the MIC [2] was 50 µg/mL and the MIC [3] was 1.56 µg/mL. For the same compound, the MIC [4] was > 100 µg/mL.
`C[Si](C)(C)CCCCn1cc[n+](-c2ccc(-c3ccccc3)cc2)c1.[I-]` showed an MIC [1] of 0.39 µg/mL, an MIC [2] of 100 µg/mL and an MIC [3] of 1.56 µg/mL. It also gave an MIC [4] of 100 µg/mL.
`CCCCCc1ccc(-[n+]2ccn(CCCC[Si](C)(C)C)c2)cc1.[I-]` gave an MIC [1] of 0.39 µg/mL, an MIC [2] of 50 µg/mL and an MIC [3] of 0.39 µg/mL. For the same compound, the MIC [4] was 100 µg/mL.
With `C[Si](C)(C)CCCCn1cc[n+](Cc2ccc(CC[Si](C)(C)C)cc2)c1.[I-]` the MIC [1] was 0.39 µg/mL, the MIC [2] was > 100 µg/mL and the MIC [3] was 0.39 µg/mL. For the same compound, the MIC [4] was 100 µg/mL.
`C[Si](C)(C)CCCCCn1cc[n+](Cc2ccc(CC[Si](C)(C)C)cc2)c1.[I-]` was tested, and the MIC [1] was 0.78 µg/mL, the MIC [2] was > 100 µg/mL and the MIC [3] was 0.78 µg/mL. The MIC [4] was > 100 µg/mL.
`C[Si](C)(C)CCCCCCn1cc[n+](Cc2ccc(CC[Si](C)(C)C)cc2)c1.[I-]` was tested, and the MIC [1] was 1.56 µg/mL, the MIC [2] was > 100 µg/mL and the MIC [3] was 1.56 µg/mL. For the same compound, the MIC [4] was > 100 µg/mL.
`C[Si](C)(C)CCCCCCCn1cc[n+](Cc2ccc(CC[Si](C)(C)C)cc2)c1.[I-]` was tested, and the MIC [1] was 1.56 µg/mL, the MIC [2] was > 100 µg/mL and the MIC [3] was 1.56 µg/mL. For the same compound, the MIC [4] was > 100 µg/mL.
For `C[Si](C)(C)CCCCCCCCCn1cc[n+](Cc2ccc(CC[Si](C)(C)C)cc2)c1.[I-]`, the MIC [1] was > 6.25 µg/mL, the MIC [2] was > 100 µg/mL and the MIC [3] was 6.25 µg/mL. The MIC [4] was > 100 µg/mL.
`CCCCCCCCCCCCCCCC[n+]1ccn(Cc2ccccc2)c1C.[I-]` was tested, and the MIC [2] was 3.13 µg/mL and the MIC [3] was 1.56 µg/mL.
